Test results published in ChEMBL document CHEMBL5653615 (J Biol Chem, 2013).
One block for each compound: values may come before it.

Tests used:
[1] = target: BDNF/NT-3 growth factors receptor (Homo sapiens) (UniProt Q16620); assay: Inhibition of human TRKB at 18.6 nM by HotSpot assay relative to control
[2] = target: Protein-tyrosine kinase 2-beta (Homo sapiens) (UniProt Q14289); assay: Inhibition of human PYK2 at 18.6 nM by HotSpot assay relative to control
[3] = target: Ribosomal protein S6 kinase beta-1 (Homo sapiens) (UniProt P23443); assay: Inhibition of human RPS6KB1 at 18.6 nM by HotSpot assay relative to control
[4] = target: Tyrosine-protein kinase ABL2 (Homo sapiens) (UniProt P42684); assay: Inhibition of human ABL2 at 18.6 nM by HotSpot assay relative to control
[5] = target: Homeodomain-interacting protein kinase 3 (Homo sapiens) (UniProt Q9H422); assay: Inhibition of human HIPK3 at 18.6 nM by HotSpot assay relative to control
[6] = target: T1, Megakaryocyte-associated tyrosine-protein kinase (Homo sapiens) (UniProt P42679); assay: Inhibition of human CTK at 18.6 nM by HotSpot assay relative to control
T1 sequence (whole entry): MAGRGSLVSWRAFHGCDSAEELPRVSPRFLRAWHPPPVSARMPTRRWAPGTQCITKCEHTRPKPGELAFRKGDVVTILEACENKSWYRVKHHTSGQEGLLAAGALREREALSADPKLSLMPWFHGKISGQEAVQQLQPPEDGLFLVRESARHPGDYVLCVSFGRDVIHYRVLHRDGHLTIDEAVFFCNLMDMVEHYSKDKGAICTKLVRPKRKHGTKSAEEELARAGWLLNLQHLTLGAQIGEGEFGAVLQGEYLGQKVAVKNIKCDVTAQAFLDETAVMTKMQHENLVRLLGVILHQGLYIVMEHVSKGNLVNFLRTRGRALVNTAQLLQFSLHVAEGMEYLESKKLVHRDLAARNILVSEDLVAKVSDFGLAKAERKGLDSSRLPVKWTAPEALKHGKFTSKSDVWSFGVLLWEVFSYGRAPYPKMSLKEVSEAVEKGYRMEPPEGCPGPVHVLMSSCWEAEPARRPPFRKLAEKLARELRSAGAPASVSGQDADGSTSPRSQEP

[7] = target: Serine/threonine-protein kinase 10 (Homo sapiens) (UniProt O94804); assay: Inhibition of human LOK at 18.6 nM by HotSpot assay relative to control
[8] = target: Serine/threonine-protein kinase PLK2 (Homo sapiens) (UniProt Q9NYY3); assay: Inhibition of human PLK2 at 18.6 nM by HotSpot assay relative to control
[9] = target: Calcium/calmodulin-dependent protein kinase type 1G (Homo sapiens) (UniProt Q96NX5); assay: Inhibition of human CAMK1g at 18.6 nM by HotSpot assay relative to control
[10] = target: CDK6/cyclin D1 (Homo sapiens) (UniProt P24385+Q00534); assay: Inhibition of human CDK6/cyclin D1 at 18.6 nM by HotSpot assay relative to control; assay type: protein-complex assay
[11] = target: Serine/threonine-protein kinase Nek6 (Homo sapiens) (UniProt Q9HC98); assay: Inhibition of human NEK6 at 1.82 nM by HotSpot assay relative to control
[12] = target: Casein kinase I isoform delta (Homo sapiens) (UniProt P48730); assay: Inhibition of human CK1d at 1.82 nM by HotSpot assay relative to control
[13] = target: cAMP-dependent protein kinase (PKA) (Homo sapiens) (UniProt P22694+P17612+P22612); assay: Inhibition of human PKA at 1.82 nM by HotSpot assay relative to control; assay type: protein assay
[14] = target: Serine/threonine-protein kinase 33 (Homo sapiens) (UniProt Q9BYT3); assay: Inhibition of human STK33 at 1.82 nM by HotSpot assay relative to control
[15] = target: Casein kinase I isoform alpha (Homo sapiens) (UniProt P48729); assay: Inhibition of human CK1a1 at 1.82 nM by HotSpot assay relative to control
[16] = target: Cyclin-dependent kinase 7/ cyclin H (Homo sapiens) (UniProt P51946+P50613); assay: Inhibition of human CDK7/cyclin H at 1.82 nM by HotSpot assay relative to control; assay type: protein-complex assay
[17] = target: T1, Megakaryocyte-associated tyrosine-protein kinase (Homo sapiens); assay: Inhibition of human CTK at 1.82 nM by HotSpot assay relative to control
[18] = target: MAP kinase-activated protein kinase 2 (Homo sapiens) (UniProt P49137); assay: Inhibition of human MAPKAPK2 at 1.82 nM by HotSpot assay relative to control
[19] = target: Receptor-interacting serine/threonine-protein kinase 2 (Homo sapiens) (UniProt O43353); assay: Inhibition of human RIPK2 at 1.82 nM by HotSpot assay relative to control
[20] = target: T2, Mitogen-activated protein kinase 12 (Homo sapiens) (UniProt P53778); assay: Inhibition of human P38g at 1.82 nM by HotSpot assay relative to control
T2 sequence (whole entry): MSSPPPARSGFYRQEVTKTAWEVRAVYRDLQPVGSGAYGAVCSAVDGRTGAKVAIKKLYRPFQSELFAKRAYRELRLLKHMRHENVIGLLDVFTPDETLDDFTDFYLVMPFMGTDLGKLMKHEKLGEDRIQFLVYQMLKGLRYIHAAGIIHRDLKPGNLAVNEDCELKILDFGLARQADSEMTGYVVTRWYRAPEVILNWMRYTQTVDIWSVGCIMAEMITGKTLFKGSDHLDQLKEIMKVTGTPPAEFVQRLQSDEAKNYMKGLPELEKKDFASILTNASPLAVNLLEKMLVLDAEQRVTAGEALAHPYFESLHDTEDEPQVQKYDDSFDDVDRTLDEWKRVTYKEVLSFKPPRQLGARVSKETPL

[21] = target: T3, Mitogen-activated protein kinase 13 (Homo sapiens) (UniProt O15264); assay: Inhibition of human MAPK13 at 1.82 nM by HotSpot assay relative to control
T3 sequence (whole entry): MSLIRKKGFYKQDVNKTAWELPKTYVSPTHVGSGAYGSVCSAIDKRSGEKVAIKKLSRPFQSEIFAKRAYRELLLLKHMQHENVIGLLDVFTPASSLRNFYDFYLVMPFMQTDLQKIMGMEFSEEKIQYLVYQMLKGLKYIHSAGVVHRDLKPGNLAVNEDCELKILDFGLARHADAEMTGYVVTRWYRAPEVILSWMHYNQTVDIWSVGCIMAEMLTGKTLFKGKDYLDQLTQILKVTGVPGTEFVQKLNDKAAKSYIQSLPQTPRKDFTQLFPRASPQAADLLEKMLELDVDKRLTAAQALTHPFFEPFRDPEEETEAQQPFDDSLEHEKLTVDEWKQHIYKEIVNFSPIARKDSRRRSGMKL

[22] = target: Serine/threonine-protein kinase pim-2 (Homo sapiens) (UniProt Q9P1W9); assay: Inhibition of human PIM2 at 500 nM by HotSpot assay relative to control
[23] = target: ALK tyrosine kinase receptor (Homo sapiens) (UniProt Q9UM73); assay: Inhibition of human ALK at 500 nM by HotSpot assay relative to control
ALK tyrosine kinase receptor (Homo sapiens), sequence (Q9UM73 19-1620 limits assumed): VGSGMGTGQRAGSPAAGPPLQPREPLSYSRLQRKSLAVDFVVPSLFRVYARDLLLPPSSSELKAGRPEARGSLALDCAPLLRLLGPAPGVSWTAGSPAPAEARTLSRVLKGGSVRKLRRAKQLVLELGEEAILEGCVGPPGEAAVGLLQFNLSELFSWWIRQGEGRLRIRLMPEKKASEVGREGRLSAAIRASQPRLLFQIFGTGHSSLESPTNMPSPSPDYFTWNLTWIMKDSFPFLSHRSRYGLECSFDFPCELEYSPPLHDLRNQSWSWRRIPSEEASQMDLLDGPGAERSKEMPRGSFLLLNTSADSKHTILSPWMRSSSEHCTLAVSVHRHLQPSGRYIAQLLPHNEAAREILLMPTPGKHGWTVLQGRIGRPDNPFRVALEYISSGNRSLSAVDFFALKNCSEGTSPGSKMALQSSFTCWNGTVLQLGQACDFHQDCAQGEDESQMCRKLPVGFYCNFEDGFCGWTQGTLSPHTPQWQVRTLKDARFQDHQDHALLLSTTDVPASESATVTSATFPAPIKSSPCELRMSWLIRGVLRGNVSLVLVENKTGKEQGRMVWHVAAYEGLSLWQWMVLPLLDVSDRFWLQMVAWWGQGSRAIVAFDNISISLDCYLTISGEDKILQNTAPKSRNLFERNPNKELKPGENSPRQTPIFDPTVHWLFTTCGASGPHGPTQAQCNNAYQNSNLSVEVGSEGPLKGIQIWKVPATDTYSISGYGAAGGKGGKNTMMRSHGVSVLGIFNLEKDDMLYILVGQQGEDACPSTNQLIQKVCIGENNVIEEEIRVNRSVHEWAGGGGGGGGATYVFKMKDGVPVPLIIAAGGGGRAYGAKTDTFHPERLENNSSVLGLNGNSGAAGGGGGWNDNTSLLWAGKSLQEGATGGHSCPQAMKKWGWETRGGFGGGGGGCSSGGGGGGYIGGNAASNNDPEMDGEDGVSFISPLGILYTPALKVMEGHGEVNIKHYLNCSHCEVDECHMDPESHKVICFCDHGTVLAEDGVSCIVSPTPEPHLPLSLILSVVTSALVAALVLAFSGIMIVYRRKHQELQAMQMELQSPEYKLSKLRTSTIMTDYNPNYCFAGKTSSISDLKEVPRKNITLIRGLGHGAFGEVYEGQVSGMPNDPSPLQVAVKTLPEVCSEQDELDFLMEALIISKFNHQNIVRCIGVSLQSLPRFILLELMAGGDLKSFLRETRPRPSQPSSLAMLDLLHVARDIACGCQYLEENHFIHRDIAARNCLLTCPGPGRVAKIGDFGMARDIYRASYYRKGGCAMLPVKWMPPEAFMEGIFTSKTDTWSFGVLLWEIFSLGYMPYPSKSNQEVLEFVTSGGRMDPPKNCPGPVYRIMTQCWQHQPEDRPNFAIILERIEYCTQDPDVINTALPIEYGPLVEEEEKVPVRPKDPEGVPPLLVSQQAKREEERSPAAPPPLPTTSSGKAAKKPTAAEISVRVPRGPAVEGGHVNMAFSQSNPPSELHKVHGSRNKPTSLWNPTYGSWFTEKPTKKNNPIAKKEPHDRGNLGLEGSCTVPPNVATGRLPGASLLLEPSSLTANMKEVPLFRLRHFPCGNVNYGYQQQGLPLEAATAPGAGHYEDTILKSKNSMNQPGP

Casein kinase I isoform alpha (Homo sapiens), sequence (P48729 2-337 limits assumed): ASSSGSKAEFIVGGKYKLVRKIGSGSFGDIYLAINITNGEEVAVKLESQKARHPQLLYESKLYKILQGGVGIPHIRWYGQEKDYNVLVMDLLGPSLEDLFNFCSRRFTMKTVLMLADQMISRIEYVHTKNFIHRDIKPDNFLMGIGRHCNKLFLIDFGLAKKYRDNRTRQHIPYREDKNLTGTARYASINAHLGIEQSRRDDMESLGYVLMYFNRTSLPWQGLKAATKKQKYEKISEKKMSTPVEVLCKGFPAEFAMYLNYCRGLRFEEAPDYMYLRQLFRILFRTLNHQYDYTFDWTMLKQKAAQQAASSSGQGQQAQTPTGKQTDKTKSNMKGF
Calcium/calmodulin-dependent protein kinase type 1G (Homo sapiens), sequence (Q96NX5 whole entry): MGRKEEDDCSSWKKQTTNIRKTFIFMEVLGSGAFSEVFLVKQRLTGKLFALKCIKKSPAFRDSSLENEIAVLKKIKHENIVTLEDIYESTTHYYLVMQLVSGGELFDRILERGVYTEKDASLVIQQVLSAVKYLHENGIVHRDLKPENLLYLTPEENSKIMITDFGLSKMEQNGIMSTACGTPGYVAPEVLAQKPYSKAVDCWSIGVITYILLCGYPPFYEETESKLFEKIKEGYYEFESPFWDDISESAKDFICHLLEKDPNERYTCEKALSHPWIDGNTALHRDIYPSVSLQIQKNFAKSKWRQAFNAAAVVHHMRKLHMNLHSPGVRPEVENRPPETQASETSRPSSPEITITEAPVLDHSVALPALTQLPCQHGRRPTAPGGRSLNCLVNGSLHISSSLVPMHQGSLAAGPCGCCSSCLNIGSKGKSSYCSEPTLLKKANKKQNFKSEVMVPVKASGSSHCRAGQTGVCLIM
Receptor-interacting serine/threonine-protein kinase 2 (Homo sapiens), sequence (O43353 whole entry): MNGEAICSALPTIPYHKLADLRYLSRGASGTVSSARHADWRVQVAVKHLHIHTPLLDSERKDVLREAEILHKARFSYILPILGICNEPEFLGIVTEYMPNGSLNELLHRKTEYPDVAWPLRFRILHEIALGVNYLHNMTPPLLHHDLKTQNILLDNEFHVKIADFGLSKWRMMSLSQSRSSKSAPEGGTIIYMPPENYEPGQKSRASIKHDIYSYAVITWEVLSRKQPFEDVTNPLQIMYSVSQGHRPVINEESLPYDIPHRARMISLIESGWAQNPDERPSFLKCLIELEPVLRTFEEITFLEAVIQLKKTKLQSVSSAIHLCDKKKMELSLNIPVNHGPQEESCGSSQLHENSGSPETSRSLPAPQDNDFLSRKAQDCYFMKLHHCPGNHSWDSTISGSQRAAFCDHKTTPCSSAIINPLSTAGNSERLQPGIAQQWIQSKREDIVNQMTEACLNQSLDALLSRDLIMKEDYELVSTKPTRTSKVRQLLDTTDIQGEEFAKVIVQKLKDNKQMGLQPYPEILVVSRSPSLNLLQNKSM
Protein-tyrosine kinase 2-beta (Homo sapiens), sequence (Q14289 whole entry, looked up): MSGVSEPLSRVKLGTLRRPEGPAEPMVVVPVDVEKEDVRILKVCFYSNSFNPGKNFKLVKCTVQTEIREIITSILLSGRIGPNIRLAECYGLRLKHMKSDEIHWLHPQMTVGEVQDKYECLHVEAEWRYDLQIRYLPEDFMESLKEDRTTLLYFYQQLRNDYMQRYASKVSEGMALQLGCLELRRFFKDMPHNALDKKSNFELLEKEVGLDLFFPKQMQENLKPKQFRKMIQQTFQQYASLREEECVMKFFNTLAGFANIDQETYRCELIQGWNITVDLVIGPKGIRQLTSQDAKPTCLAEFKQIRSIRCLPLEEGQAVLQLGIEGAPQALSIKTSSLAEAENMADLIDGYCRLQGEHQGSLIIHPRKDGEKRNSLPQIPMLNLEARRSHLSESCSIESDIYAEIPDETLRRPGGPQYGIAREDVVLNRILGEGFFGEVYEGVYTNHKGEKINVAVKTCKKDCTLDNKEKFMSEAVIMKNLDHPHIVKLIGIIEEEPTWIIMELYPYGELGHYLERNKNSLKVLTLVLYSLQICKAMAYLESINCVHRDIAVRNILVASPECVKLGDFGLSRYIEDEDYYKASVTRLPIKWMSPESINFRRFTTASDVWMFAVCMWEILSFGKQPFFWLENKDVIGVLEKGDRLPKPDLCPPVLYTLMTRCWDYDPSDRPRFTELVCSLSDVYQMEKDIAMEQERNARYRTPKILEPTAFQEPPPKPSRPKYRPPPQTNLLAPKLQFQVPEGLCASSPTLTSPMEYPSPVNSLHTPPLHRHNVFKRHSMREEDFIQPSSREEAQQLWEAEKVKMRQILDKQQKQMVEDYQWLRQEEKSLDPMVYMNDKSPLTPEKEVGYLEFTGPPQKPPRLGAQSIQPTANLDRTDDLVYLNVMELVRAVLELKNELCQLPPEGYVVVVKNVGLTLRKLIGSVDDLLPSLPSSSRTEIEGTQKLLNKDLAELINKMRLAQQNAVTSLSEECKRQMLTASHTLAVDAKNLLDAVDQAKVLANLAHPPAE
MAP kinase-activated protein kinase 2 (Homo sapiens), sequence (P49137 whole entry, looked up): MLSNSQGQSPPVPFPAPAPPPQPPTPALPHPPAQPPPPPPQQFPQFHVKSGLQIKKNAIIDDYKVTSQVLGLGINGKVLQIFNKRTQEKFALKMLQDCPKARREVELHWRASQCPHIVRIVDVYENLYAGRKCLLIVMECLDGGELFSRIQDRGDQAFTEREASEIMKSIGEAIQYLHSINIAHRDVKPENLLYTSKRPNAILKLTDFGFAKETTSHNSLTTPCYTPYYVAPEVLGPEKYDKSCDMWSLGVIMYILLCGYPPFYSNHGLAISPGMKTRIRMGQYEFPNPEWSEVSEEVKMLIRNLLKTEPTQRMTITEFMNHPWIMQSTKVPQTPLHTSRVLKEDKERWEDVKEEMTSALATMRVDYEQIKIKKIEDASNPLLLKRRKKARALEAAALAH
Ribosomal protein S6 kinase beta-1 (Homo sapiens), sequence (P23443 whole entry, looked up): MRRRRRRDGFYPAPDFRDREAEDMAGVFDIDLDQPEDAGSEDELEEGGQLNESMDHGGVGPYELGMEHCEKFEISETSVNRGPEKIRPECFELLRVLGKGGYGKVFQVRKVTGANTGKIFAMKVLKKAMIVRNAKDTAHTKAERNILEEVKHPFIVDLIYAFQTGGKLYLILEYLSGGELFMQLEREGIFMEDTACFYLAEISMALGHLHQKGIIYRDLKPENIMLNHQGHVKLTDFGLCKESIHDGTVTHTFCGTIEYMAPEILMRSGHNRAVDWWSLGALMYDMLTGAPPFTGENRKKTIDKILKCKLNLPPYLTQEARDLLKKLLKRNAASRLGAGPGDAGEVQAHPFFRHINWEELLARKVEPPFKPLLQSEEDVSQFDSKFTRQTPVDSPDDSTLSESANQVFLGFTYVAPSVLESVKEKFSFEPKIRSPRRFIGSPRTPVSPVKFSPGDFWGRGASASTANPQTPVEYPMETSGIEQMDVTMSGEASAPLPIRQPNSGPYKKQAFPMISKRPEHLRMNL

inhibition [1]: -7.44% | inhibition [2]: -4.64% | inhibition [3]: -4.9% | inhibition [4]: -0.1% | inhibition [5]: -5.3% | inhibition [6]: -2.07% | inhibition [7]: 9.09% | inhibition [8]: -0.58% | inhibition [9]: 6.69% | inhibition [10]: 0.62%
SMILES: C[C@]1(O)C[C@@H](c2nc(-c3ccc4ccc(-c5ccccc5)nc4c3)c3c(N)nccn32)C1

inhibition [11]: 5.33% | inhibition [12]: 0.92% | inhibition [13]: -3.44% | inhibition [14]: 1.95% | inhibition [15]: -1.84% | inhibition [16]: -3.28% | inhibition [17]: -1.93% | inhibition [18]: 0.98% | inhibition [19]: 6.56% | inhibition [20]: -4.67% | inhibition [21]: -4.13%
SMILES: C[C@@]1(C(=O)Nc2ccc(F)nc2)CCCN1c1nc(Nc2cc(C3CC3)n[nH]2)c2cccn2n1

SMILES: Nc1n[nH]c2nnc(-c3c(-c4ccccc4)nn4ccccc34)cc12
inhibition [22]: 8.35% | inhibition [23]: -7.89%
